Laboratory results reported in patent publication EP1171107B1, “USE OF A PHARMACEUTICAL COMPOSITION IN THE MANUFACTURE OF A MEDICAMENT FOR THE TREATMENT OF PATHOLOGICAL CONDITIONS OF THE EYE CAUSED BY BACTERIA, VIRUSES, FUNGI, YEASTS AND PROTOZOA” (Dr. GERHARD MANN chem.-pharm. Fabrik GmbH, priority 1999, dated 2000).
Counter-ions that a name gives are not always drawn.

Columns and labels:
S.aureus = assay: Qualitative examination: enrichment of the inoculated test preparation in broth; assay type: cell-based
Summary of the method: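 Growth/no growth after broth enrichment read out; negative enrichment taken as elimination of inoculum. Inoculum ca. 10^5 CFU/ml in 5 ml test substance, contact 2–72 h, then centrifugation wash in NaCl-peptone buffer, 2 ml into 20 ml Caso broth or Fildes medium, ≤4 d, 33±2°C.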

Alle Testkeime = assay: Overall assessment: time until all test germs are eliminated (count and enrichment); assay type: cell-based; settings: time after inoculation; all six test germs
Method: Escherichia (E.coli) Staphylococcus (S.aureus) Streptococcus (Sc.) Pneumoniae Pseudomonas (P.aeruginosa) Staphylococcus (S. epidermidis) Haemophilus (H. influenzae)
Die verschiedenen Testsubstanzen a. bis j. wurden jeweils zu 5 ml in sterile Zentrifugenröhrchen abgefüllt und mit ca. 10^5 KBE^*/ml (* = koloniebildende Einheiten) der oben genannten Testkeime kontaminiert. Pro Substanz wurde für jeden Testkeim und jede zu prüfende Testzeit ein separater Ansatz angeimpft, d.h.10 Testsubstanzen zu jeweils 7 Testzeiten und 6 Testkeime (= insgesamt 502 Testansätze). Nach 2, 6, 8, 24, 32, 48 und 72 Stunden wurde dann der jeweilige Testansatz 10 Minuten bei 3000 rpm abzentrifugiert. Der Überstand wurde dekantiert und das Pellet in 5 ml NaCl Peptonpuffer aufgenommen und resuspendiert. Die Suspension wurde erneut 10 Minuten bei 3000 rpm abzentrifugiert und 5 ml NaCl-Peptonpuffer aufgenommen und mittels Vortex homogenisiert.
Die anschließende Keimzahlbestimmung erfolgte im Oberflächenverfahren durch Ausspiralisieren eines 10011 Aliquots auf Caso-Agar bzw. für H. influenzae auf Kochblut-Agar. Die Platten wurden bei 33±2°C für max. 4 Tage bebrütet. Die Nachweisgrenze des Verfahrens liegt bei 100 KBE/ml.
Jeweils 2 ml der Testansätze wurden in 20 ml Caso-Bouillon oder für H. influenzae, in Fildes-Medium der Firma Becton Dickinson, ARt. […]

For `CCCCCCCCCCCC[N+](C)(C)Cc1ccccc1` [Benzalkoniumchlorid 0,005 Gew.-%, Benzododeciniumchlorid], which “Ergebnis der Reisolierung qualitiativ (+/-) nach Anreicherung” value (shortened to “Ergebnis der Reisolierung qualitiativ”) (S.aureus; 2 h after inoculation) is on record?
Its value is “-”.

And the “Ergebnis der Reisolierung qualitiativ” value (S.aureus; 4 h after inoculation)?
The value was “-”.

What about the “Ergebnis der Reisolierung qualitiativ” value (S.aureus; 6 h after inoculation) of the same molecule?
The value was “-”.

And the “Ergebnis der Reisolierung qualitiativ” value (S.aureus; 8 h after inoculation)?
Its value is “-”.

What about the “Ergebnis der Reisolierung qualitiativ” value (S.aureus; 24 h after inoculation) of the same molecule?
Its value is “-”.

What about the “Ergebnis der Reisolierung qualitiativ” value (S.aureus; 32 h after inoculation) of the same molecule?
Its value is “-”.

And the “Ergebnis der Reisolierung qualitiativ” value (S.aureus; 48 h after inoculation)?
The value was “-”.

And the “Ergebnis der Reisolierung qualitiativ” value (S.aureus; 72 h after inoculation)?
Its value is “-”.

With `O=C(O)c1cn(C2CC2)c2cc(N3CCNCC3)c(F)cc2c1=O` [Ciprofloxacin HCl 0,35 Gew.-%, Ciprofloxacin HCl, reference compound] as the molecule, how does the “Ergebnis der Reisolierung qualitiativ” value (S.aureus; 2 h after inoculation) read?
The value was “+”.

What about the “Ergebnis der Reisolierung qualitiativ” value (S.aureus; 4 h after inoculation) of the same molecule?
The value was “+”.

And the “Ergebnis der Reisolierung qualitiativ” value (S.aureus; 6 h after inoculation)?
Its value is “+”.

And the “Ergebnis der Reisolierung qualitiativ” value (S.aureus; 8 h after inoculation)?
Its value is “+”.

What about the “Ergebnis der Reisolierung qualitiativ” value (S.aureus; 24 h after inoculation) of the same molecule?
Its value is “-”.

And the “Ergebnis der Reisolierung qualitiativ” value (S.aureus; 32 h after inoculation)?
Its value is “-”.

What about the “Ergebnis der Reisolierung qualitiativ” value (S.aureus; 48 h after inoculation) of the same molecule?
The value was “-”.

What about the “Ergebnis der Reisolierung qualitiativ” value (S.aureus; 72 h after inoculation) of the same molecule?
The value was “-”.

Which “Ergebnis der Reisolierung qualitiativ” value (S.aureus; 2 h after inoculation) does the source give for `CC1COc2c(N3CCN(C)CC3)c(F)cc3c(=O)c(C(=O)O)cn1c23` (stereo not shown) [Ofloxacin 0,3 Gew.-%, Ofloxacin, reference compound] here?
The value was “+”.

What about the “Ergebnis der Reisolierung qualitiativ” value (S.aureus; 4 h after inoculation) of the same molecule?
The value was “+”.

And the “Ergebnis der Reisolierung qualitiativ” value (S.aureus; 6 h after inoculation)?
Its value is “+”.

What about the “Ergebnis der Reisolierung qualitiativ” value (S.aureus; 8 h after inoculation) of the same molecule?
Its value is “-”.

What about the “Ergebnis der Reisolierung qualitiativ” value (S.aureus; 24 h after inoculation) of the same molecule?
Its value is “-”.

And the “Ergebnis der Reisolierung qualitiativ” value (S.aureus; 32 h after inoculation)?
Its value is “-”.

What about the “Ergebnis der Reisolierung qualitiativ” value (S.aureus; 48 h after inoculation) of the same molecule?
Its value is “-”.

And the “Ergebnis der Reisolierung qualitiativ” value (S.aureus; 72 h after inoculation)?
The value was “-”.

And the “Testkeime nach Inokulation der Zubereitung auch qualitativ nicht mehr nachweisbar” value (Alle Testkeime)?
Its value is 24 Stunden.

How did the “Ergebnis der Reisolierung qualitiativ” value (S.aureus; 2 h after inoculation) turn out when “Benzalkoniumchlorid [Benzalkoniumchlorid 0,001 Gew.-%]” was run?
The value was “-”.

And the “Ergebnis der Reisolierung qualitiativ” value (S.aureus; 4 h after inoculation)?
The value was “-”.

What about the “Ergebnis der Reisolierung qualitiativ” value (S.aureus; 6 h after inoculation) of the same molecule?
Its value is “-”.

And the “Ergebnis der Reisolierung qualitiativ” value (S.aureus; 8 h after inoculation)?
The value was “-”.

What about the “Ergebnis der Reisolierung qualitiativ” value (S.aureus; 24 h after inoculation) of the same molecule?
The value was “-”.

And the “Ergebnis der Reisolierung qualitiativ” value (S.aureus; 32 h after inoculation)?
The value was “-”.

What about the “Ergebnis der Reisolierung qualitiativ” value (S.aureus; 48 h after inoculation) of the same molecule?
The value was “-”.

What about the “Ergebnis der Reisolierung qualitiativ” value (S.aureus; 72 h after inoculation) of the same molecule?
The value was “-”.

What does the source list for “Benzalkoniumchlorid [Benzalkoniumchlorid 0,006 Gew.-%]”?
Ergebnis der Reisolierung qualitiativ (+/-) nach Anreicherung (S.aureus; 2 h after inoculation): -; Ergebnis der Reisolierung qualitiativ (+/-) nach Anreicherung (S.aureus; 4 h after inoculation): -; Ergebnis der Reisolierung qualitiativ (+/-) nach Anreicherung (S.aureus; 6 h after inoculation): -; Ergebnis der Reisolierung qualitiativ (+/-) nach Anreicherung (S.aureus; 8 h after inoculation): -; Ergebnis der Reisolierung qualitiativ (+/-) nach Anreicherung (S.aureus; 24 h after inoculation): -; Ergebnis der Reisolierung qualitiativ (+/-) nach Anreicherung (S.aureus; 32 h after inoculation): -; Ergebnis der Reisolierung qualitiativ (+/-) nach Anreicherung (S.aureus; 48 h after inoculation): -; Ergebnis der Reisolierung qualitiativ (+/-) nach Anreicherung (S.aureus; 72 h after inoculation): -

Which results are given for “Benzalkoniumchlorid [Benzalkoniumchlorid 0,0025 Gew.-%]”?
Ergebnis der Reisolierung qualitiativ (+/-) nach Anreicherung (S.aureus; 2 h after inoculation): -; Ergebnis der Reisolierung qualitiativ (+/-) nach Anreicherung (S.aureus; 4 h after inoculation): -; Ergebnis der Reisolierung qualitiativ (+/-) nach Anreicherung (S.aureus; 6 h after inoculation): -; Ergebnis der Reisolierung qualitiativ (+/-) nach Anreicherung (S.aureus; 8 h after inoculation): -; Ergebnis der Reisolierung qualitiativ (+/-) nach Anreicherung (S.aureus; 24 h after inoculation): -; Ergebnis der Reisolierung qualitiativ (+/-) nach Anreicherung (S.aureus; 32 h after inoculation): -; Ergebnis der Reisolierung qualitiativ (+/-) nach Anreicherung (S.aureus; 48 h after inoculation): -; Ergebnis der Reisolierung qualitiativ (+/-) nach Anreicherung (S.aureus; 72 h after inoculation): -
